From patent EP3569229A1, “PROPHYLACTIC AND/OR THERAPEUTIC AGENT FOR DISEASES ASSOCIATED WITH AMPA RECEPTORS” (Public University Corporation Yokohama City University, priority 2017, dated 2018)

Experiments:
AMPA receptors [1] = test: AMPA receptor binding test (electrophysiological verification, whole-cell recording of AMPA current in acute hippocampal section); type: cell-based, SD rats; settings: pyramidal cell in CA1, compound administered for 15 minutes, Fig. 2
Experimental: Male SD rats which were 7 to 8 weeks old were used. The rat was decapitated under anesthesia with isoflurane, and an acute brain section which included the hippocampus and whose thickness was 400 µm was produced with a vibratome (VT1000; Leica Camera AG). The section was left in the ACSF at room temperature for 60 minutes, and then an AMPA current was measured by a whole-cell recording method. Under conditions in which the ACSF was refluxed at a rate of 3 ml/minute, only the AMPA current was isolated by administration of picrotoxin and APV. An exciting electrode was placed on a Schaffer fiber, and a recording electrode was placed on a pyramidal cell in CA1. The whole-cell recording was performed with a potential fixed to -80 mV, and a stimulus of 100 microseconds was applied every 30 seconds. The AMPA current in a ground state was recorded for 5 minutes, then K-2 or K-4 was administered for 15 minutes and thereafter the AMPA current was recorded for 30 minutes. When the section was left and when the section was refluxed, the ACSF was saturated with 95% O2/5% CO2 and was then used, and the composition of the ACSF was as follows; 119 mM NaCl, 2.5 mM KCl, 2.5 mM CaCl2, 1.5 mM MgSO4, 26 mM NaHCO3 and 1 mM NaH2PO4. […]

AMPA receptors [2] = test: AMPA receptor binding test (in vitro autoradiography method); design: species or system SD rats; settings: acute rat brain section including the striatum; [^11C] K-2; Fig. 1
Experimental: As rats, adult male SD rats (Charles River, Japan) which were […] were used. An acute brain section which included the striatum and whose thickness was 200 µm was produced, was placed on a cell strainer and was left in an oxygenated ACSF (artificial cerebrospinal fluid) for 60 minutes. 12 ml of 100 µM PEPA (ACSF containing 1% DMSO) was adjusted, and [^11C] K-2 was added thereto so as to achieve 20 nM, and the resultant solution was left for 60 minutes. After the reaction, the resultant solution was washed with the ACSF for 10 seconds three times, and was finally washed with distilled water for 10 seconds. The cell strainer was cut out so as to be slightly larger than the brain section after the reaction, and was exposed to an imaging plate for 2 hours. The imaging plate after the exposure was imaged with Typhoon (GE Healthcare Japan) (resolution of 25 pixels).

WKY rat = test: Forced swimming test using rat; type: in vivo; settings: acute administration, intravenous, 30 minutes before test; 1.0 mg/kg; Figs. 8, 9 and 10
Experimental: In a forced swimming test, AMPA receptor-binding compounds K-2 and K-4 were dissolved in 100% DMSO (Nacalai Tesque, Inc. Japan) so as to have a concentration of 2.1 mM, were diluted with saline immediately before being administered (15% DMSO, 320 µM) and were intravenously administered to the rat with an administered amount of 5 µl/weight (g) such that the administered amount fell within a range of 1 mg/kg to 1.5 mg/kg.
In all animal experiments, the deliberation and the approval of the animal experiment committee in Yokohama City University were received (approval number: F-A-15-051). As rats, adult male Wistar rats which were 6 to 10 weeks old and Wistar Kyoto rats (WKY rats) which were depression model rats (Charles River, Japan) were used. In order to acquire a route for the repeated administration of K-2, a jugular vein cannula indwelling surgery was performed a week before the experiment. The rat was made to fall sleep with isoflurane (DS Pharma Animal Health, Japan), and thereafter while anesthesia was maintained at an isoflurane concentration of 1.5% (air 2 L/minute), the jugular vein cannula indwelling surgery was performed. The skin of the neck was incised about 3 cm such that subcutaneous fat was opened, and thus the jugular vein was exposed. A needle to which a cannula tube was fitted was made to penetrate the jugular vein, then the cannula tube was removed from the needle and the tip of the cannula tube was inserted 2.5 cm into the jugular vein so as to be fixed near the insertion portion with sutures. The opposite side of the cannula tube was exposed to the outside of the body through the back of the rat, a plug was fitted so as to prevent backflow and the opened skin was sutured. After the completion of the surgery, the rat was returned to a home cage.
The forced swimming test was performed in a pre-administration experiment on the day before the administration of the drug, in an acute administration experiment on the first day of the administration of the drug and in a chronic administration experiment on the seventh day of the administration of the drug. […]

SMILES | binding affinity to the AMPA receptors (AMPA receptors [1]) | Kd (AMPA receptors [2]) | immobility time (WKY rat)
CN(CCSc1cc(F)c(OCC(N)=O)c(F)c1)S(=O)(=O)c1ccccc1 [K-2, {4-[2-(benzenesulfonyl-methyl-amino)-ethylsulfanil]-2,6-difluoro-phenoxy}-acetamide] | indicated binding affinity | 47.9 nM | –
CN(C)C(=O)COc1c(F)cc(SCCN(C)S(=O)(=O)c2ccccc2)cc1F [K-4, {4-[2-(benzenesulfonyl-methyl-amino)-ethylsulfanil]-2,6-difluoro-phenoxy}-N,N-dimethyl-acetamide] | indicated binding affinity | – | –
CN(C)C(=O)COc1c(F)cc(SCCN(C)S(=O)(=O)c2ccc(F)cc2)cc1F [K-26, {4-[2-(4-fluoro-benzenesulfonyl-methyl-amino)-ethylsulfanil]-2,6-difluoro-phenoxy}-N,N-dimethyl-acetamide] | – | – | tendency that the immobility time was lower
CCN(CC)C(=O)COc1c(F)cc(SCCN(C)S(=O)(=O)c2ccccc2)cc1F [K-30, {4-[2-(benzenesulfonyl-methyl-amino)-ethylsulfanil]-2,6-difluoro-phenoxy}-N,N-diethyl-acetamide] | – | – | tendency that the immobility time was lower
CNC(=O)COc1c(F)cc(SCCN(C)S(=O)(=O)c2ccccc2)cc1F [K-32, {4-[2-(benzenesulfonyl-methyl-amino)-ethylsulfanil]-2,6-difluoro-phenoxy}-N-methyl-acetamide] | – | – | tendency that the immobility time was lower
